Where a chain is given by its changes, count along the chain named. Where no end group is shown, it is not given here.

Format in all cases: binding
Assay [1] concerns the target T1, huUHRF1-PHD296–367 D334A (Homo sapiens, UniProt Q96T88, D334A).
T1 construct: Characterization of key residues for the recognition of the histone H3 tail by huUHRF1-PHD296–367; (His)6-GST (N, cleaved yes); made in house; host or cells: Escherichia coli Rosetta 2
T1 sequence (Q96T88 296-367 D334A): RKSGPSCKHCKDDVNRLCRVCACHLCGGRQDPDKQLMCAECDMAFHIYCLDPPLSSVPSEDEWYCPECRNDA
Kind of assay: ITC, D334A mutant. Particulars: 20°C, 20 mM Tris pH 7, 150 mM NaCl, 0.5 mM TCEP, 25 µM ZnCl2, at least in duplicates. As to the method:
(§1) Measurements were carried out at 20°C on an ITC200 Microcal calorimeter (MicroCal). Histone peptides (1–12Y, 1.5–2 mM) were injected to a sample of either wild-type or mutant huUHRF1-PHD (0.12–0.18 mM) in a reaction buffer containing 20 mM Tris pH 7, 150 mM NaCl, 0.5 mM TCEP, 25 µM ZnCl2 and 0.1 mM PMSF. A typical titration consisted of 19 injections of 2 µl of peptide into 203 µl of the protein solution at time intervals of 150–300 s. Control experiments were performed under identical conditions to determine the dilution heat of the titrant peptide into buffer. Data were analyzed using the software ORIGIN 5.0 (OriginLab Corporation) and all the measurements were performed, at least, in duplicates.
On the technique in general: ITC needs no label: the signal is the heat of the interaction.

Assay [2] concerns the target T2, huUHRF1-PHD296–367 D337A (Homo sapiens, UniProt Q96T88, D337A).
T2 construct: Characterization of key residues for the recognition of the histone H3 tail by huUHRF1-PHD296–367; (His)6-GST (N, cleaved yes); made in house; host or cells: Escherichia coli Rosetta 2
T2 sequence (Q96T88 296-367 D337A): T1 sequence (Q96T88 296-367 D334A) with A39D, D42A
Kind of assay: ITC, D337A mutant. As to conditions: 20°C, 20 mM Tris pH 7, 150 mM NaCl, 0.5 mM TCEP, 25 µM ZnCl2, at least in duplicates. The procedure:
as §1

In assay [3] the target is T3, huUHRF1-PHD296–367 (Homo sapiens, UniProt Q96T88).
T3 construct: (His)6-GST (N, cleaved yes); made in house; host or cells: Escherichia coli Rosetta 2
T3 sequence (Q96T88 296-367): T1 sequence (Q96T88 296-367 D334A) with A39D
Description: ITC, wild-type huUHRF1-PHD296–367 with histone H3 peptides. As to conditions: 20°C, 20 mM Tris pH 7, 150 mM NaCl, 0.5 mM TCEP, 25 µM ZnCl2, 0.1 mM PMSF, peptide 1.5–2 mM into protein 0.12–0.18 mM, at least in duplicates. As to the method: Measurements were carried out at 20°C on an ITC200 Microcal calorimeter (MicroCal). […] A typical titration consisted of 19 injections of 2 µl of peptide into 203 µl of the protein solution at time intervals of 150–300 s. Control experiments were performed under identical conditions to determine the dilution heat of the titrant peptide into buffer. Data were analyzed using the software ORIGIN 5.0 (OriginLab Corporation) and all the measurements were performed, at least, in duplicates.

For orientation: Kd means a measure of binding affinity in units of concentration. The low end stands for tighter binding, the high end for weaker binding. For `C[C@H](N)C(=O)N[C@@H](CCCNC(=N)N)C(=O)N[C@H](C(=O)N[C@@H](CCCCN)C(=O)N[C@@H](CCC(N)=O)C(=O)N[C@H](C(=O)N[C@@H](C)C(=O)N[C@@H](CCCNC(=N)N)C(=O)N[C@@H](CCCCN)C(=O)N[C@@H](CO)C(=O)N[C@H](C(=O)NCC(=O)N[C@@H](Cc1ccc(O)cc1)C(=O)O)[C@@H](C)O)[C@@H](C)O)[C@@H](C)O` [H3 (1-12Y)], the Kd was more than 500 µM in assay [1] and 68 ± 8 µM in assay [2].

On to `C[C@H](N)C(=O)N[C@@H](CCCNC(=N)N)C(=O)N[C@H](C(=O)N[C@@H](CCCCN)C(=O)N[C@@H](CCC(N)=O)C(=O)N[C@H](C(=O)N[C@@H](C)C(=O)N[C@@H](CCCNC(=N)N)C(=O)N[C@@H](CCCCN)C(=O)N[C@@H](CO)C(=O)N[C@H](C(=O)NCC(=O)N[C@@H](Cc1ccc(O)cc1)C(=O)O)[C@@H](C)O)[C@@H](C)O)[C@@H](C)O` [unmodified H3], for which, in assay [3], the Kd turned out to be 7.9 µM.

Consider ARTAQTARKSTGY [H3K4A (1-12Y)], for which, in assay [3], binding was characterised by a dissociation constant (Kd) of 16.6 ± 0.9 µM.

Source of the values: article PMC3214078 (PLoS ONE, 2011).
